From ChEMBL document CHEMBL1201862, “PubChem BioAssay data set” (2004)
Activity calls are given as the source filed them.

Experiments:
Streptococcus = assay: GAS UMAA2166 growth inhibition – luminescence, BacTiterGlo, counter-screen for streptokinase expression inhibitor project, dose response (AID 1915); format: functional, organism-based;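 also: potency for reduction of bacterial viability or growth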
Streptokinase A = molecular target: T1, Streptokinase A (Streptococcus pyogenes serotype M1, UniProt P10520); assay: viability-normalized secreted streptokinase activity reduction – plasminogen activation absorbance, OD405, dose response (AID 1914); format: functional, Streptococcus pyogenes M1 GAS;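 also: secreted streptokinase activity via plasminogen activation per viability signal from cell pellet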
T1 sequence (P10520 whole entry): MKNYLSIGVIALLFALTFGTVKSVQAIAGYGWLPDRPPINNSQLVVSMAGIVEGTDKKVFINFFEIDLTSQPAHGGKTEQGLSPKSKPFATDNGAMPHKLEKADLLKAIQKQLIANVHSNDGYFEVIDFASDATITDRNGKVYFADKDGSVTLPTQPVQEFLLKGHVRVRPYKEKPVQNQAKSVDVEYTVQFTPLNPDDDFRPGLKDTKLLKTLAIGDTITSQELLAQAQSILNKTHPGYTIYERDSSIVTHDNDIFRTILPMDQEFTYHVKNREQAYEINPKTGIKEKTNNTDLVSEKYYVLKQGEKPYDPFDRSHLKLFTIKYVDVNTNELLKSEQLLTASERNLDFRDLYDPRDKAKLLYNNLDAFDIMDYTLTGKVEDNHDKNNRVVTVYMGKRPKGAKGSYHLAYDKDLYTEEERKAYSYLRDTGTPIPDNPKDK

[1] = Luminescence Cell-Based Dose Retest to Confirm Inhibitors of Cancer Stem Cells. [Related pubchem assays (depositor defined):AID2717, AID2721]; format: functional; details: Homo sapiens
[2] = test system: Streptococcus sp. 'group A'; assay: Streptococcus pyogenes SK(-)GAS viability under kanamycin – luminescence, BacTiterGlo, confirmation, counter-screen for streptokinase expression inhibitor project, dose response (AID 1900); format: functional, organism-based
[3] = molecular target: G-protein coupled receptor 55 (Homo sapiens, UniProt Q9Y2T6); assay: selective activators of receptor GPR55 – imaging, U2OS cells, beta-arrestin-GFP redistribution, primary screen (AID 1961); format: functional
[4] = molecular target: DNA dC->dU-editing enzyme APOBEC-3A (Homo sapiens, UniProt P31941); assay: A3A deaminase inhibition for selectivity – biochemical, dose response (AID 504722); format: functional
[5] = molecular target: DNA dC->dU-editing enzyme APOBEC-3G (Homo sapiens, UniProt Q9HC16); assay: Dose Response confirmation of small molecule APOBEC3G DNA Deaminase Inhibitors via a fluorescence-based single-stranded DNA deaminase assay. [Related pubchem assays (depositor defined):AID493012, AID493028]; format: functional
[6] = molecular target: T2, Rac GTPase-activating protein 1 (Homo sapiens, UniProt Q9H0H5); assay: blockers of MgcRacGAP-driven Rac1 GTP hydrolysis – biochemical, ADP Hunter fluorescence, primary and confirmatory, confirmation (AID 624330); format: functional
T2 sequence (Q9H0H5 whole entry): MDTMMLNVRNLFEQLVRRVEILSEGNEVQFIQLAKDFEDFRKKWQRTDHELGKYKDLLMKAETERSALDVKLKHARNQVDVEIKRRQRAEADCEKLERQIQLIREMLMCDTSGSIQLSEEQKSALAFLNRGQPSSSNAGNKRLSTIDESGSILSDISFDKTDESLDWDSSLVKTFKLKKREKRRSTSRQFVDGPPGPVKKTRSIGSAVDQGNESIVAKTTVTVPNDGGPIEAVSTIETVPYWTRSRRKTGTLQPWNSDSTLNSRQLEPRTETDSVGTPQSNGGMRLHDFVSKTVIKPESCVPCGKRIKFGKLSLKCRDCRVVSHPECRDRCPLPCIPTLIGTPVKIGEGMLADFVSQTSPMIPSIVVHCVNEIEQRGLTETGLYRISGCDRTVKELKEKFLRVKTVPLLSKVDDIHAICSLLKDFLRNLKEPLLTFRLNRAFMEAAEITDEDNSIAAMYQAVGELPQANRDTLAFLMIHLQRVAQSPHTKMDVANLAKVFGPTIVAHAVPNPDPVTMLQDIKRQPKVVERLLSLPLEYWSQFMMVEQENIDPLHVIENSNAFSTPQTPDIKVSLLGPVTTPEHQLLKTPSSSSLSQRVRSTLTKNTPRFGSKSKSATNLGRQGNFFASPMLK

[7] = molecular target: T3, Short transient receptor potential channel 4 (Mus musculus, UniProt Q9QUQ5); assay: block of DAMGO-driven TRPC4 calcium entry – cell-based, HEK293 TRPC4/mu-opioid, Fluo-4 calcium, dose response (AID 434942); format: functional;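 also: potency of inhibitors blocking the TRPC4 calcium response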
T3 sequence (Q9QUQ5 whole entry): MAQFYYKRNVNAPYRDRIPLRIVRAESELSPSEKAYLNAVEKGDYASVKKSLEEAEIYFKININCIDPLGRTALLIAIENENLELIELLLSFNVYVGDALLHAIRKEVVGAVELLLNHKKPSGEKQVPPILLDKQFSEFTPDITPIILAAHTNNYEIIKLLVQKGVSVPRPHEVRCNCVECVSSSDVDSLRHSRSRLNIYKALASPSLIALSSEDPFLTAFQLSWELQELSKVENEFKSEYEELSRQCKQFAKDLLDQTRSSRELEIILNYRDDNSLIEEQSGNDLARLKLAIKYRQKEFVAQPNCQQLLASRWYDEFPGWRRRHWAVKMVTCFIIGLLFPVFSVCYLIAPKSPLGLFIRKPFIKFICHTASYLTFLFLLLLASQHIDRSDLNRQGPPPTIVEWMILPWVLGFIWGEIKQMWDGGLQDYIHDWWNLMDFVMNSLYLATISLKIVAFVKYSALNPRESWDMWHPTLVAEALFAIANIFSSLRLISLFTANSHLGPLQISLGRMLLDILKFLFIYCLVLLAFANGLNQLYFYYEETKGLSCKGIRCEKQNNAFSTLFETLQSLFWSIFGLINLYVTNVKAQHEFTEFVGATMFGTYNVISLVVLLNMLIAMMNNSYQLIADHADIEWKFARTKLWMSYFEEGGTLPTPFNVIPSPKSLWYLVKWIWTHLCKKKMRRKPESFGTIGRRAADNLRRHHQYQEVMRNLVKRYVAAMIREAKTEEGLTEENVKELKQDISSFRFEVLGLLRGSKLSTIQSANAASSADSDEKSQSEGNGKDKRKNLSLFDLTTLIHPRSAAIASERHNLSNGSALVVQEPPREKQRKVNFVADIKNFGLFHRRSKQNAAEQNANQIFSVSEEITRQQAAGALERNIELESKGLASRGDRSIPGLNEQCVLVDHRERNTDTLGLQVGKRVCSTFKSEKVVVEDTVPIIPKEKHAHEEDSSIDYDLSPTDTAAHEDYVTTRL

[8] = molecular target: SWI/SNF-related matrix-associated actin-dependent regulator of chromatin subfamily A member 2 (Homo sapiens, UniProt P51531); assay: Luminescence-based cell-based high throughput dose response assay to identify activators of the function of SWI/SNF related, matrix associated, actin dependent regulator of chromatin, subfamily a, member 2 (SMARCA2, BRM).; format: functional
[9] = molecular target: T4, Mannose-6-phosphate isomerase (Homo sapiens, UniProt P34949); assay: MPI enzyme activity inhibition – biochemical, fluorescence intensity, coupled assay, primary screen (AID 1209)
T4 sequence (P34949 whole entry): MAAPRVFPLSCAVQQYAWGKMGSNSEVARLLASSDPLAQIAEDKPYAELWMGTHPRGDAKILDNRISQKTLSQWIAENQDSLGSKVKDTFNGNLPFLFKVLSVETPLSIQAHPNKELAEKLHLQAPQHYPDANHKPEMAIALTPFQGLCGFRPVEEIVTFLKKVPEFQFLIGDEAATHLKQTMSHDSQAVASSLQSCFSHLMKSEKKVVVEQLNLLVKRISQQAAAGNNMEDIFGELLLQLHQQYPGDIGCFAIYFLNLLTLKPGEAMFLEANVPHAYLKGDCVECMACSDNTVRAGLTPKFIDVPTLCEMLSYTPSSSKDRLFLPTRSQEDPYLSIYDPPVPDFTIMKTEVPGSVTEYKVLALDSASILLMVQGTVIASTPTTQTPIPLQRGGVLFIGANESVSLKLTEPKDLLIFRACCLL

[10] = Counterscreen for activators of the function of SWI/SNF related, matrix associated, actin dependent regulator of chromatin, subfamily a, member 2 (SMARCA2, BRM): Luminescence-based cell-based high throughput dose response assay to identify non-selective compounds using the VP16 reporter assay.; format: functional
[11] = molecular target: Induced myeloid leukemia cell differentiation protein Mcl-1 (Homo sapiens, UniProt Q07820); format: functional
[12] = molecular target: DNA damage-inducible transcript 3 protein (Mus musculus, UniProt P35639); format: functional, Cricetulus griseus
[13] = molecular target: Eukaryotic translation initiation factor 4H (Homo sapiens, UniProt Q15056); assay: inhibitors of translation initiation factor eIF4H – SAR follow-up (AID 435011); format: functional
[14] = molecular target: Polyadenylate-binding protein 1 (Homo sapiens, UniProt P11940); assay: PABP inhibition in translation initiation, SAR follow-up (AID 435018); format: functional
[15] = molecular target: Intestinal-type alkaline phosphatase (Homo sapiens, UniProt P09923); assay: Dose Response confirmation of uHTS hits from a small molecule inhibitors of human intestinal alkaline phosphatase via a luminescent assay. [Related pubchem assays (depositor defined):AID2544, AID2574]; format: functional
[16] = molecular target: T5, Corticotropin-releasing factor receptor 2/Corticotropin-releasing factor-binding protein (Homo sapiens, UniProt P24387+Q13324); assay: activators of CRF receptor 2 with binding protein – uHTS hits, confirmation (AID 602473); format: functional; details: read-out: EC50_Mean
T5 sequence (Q13324 whole entry): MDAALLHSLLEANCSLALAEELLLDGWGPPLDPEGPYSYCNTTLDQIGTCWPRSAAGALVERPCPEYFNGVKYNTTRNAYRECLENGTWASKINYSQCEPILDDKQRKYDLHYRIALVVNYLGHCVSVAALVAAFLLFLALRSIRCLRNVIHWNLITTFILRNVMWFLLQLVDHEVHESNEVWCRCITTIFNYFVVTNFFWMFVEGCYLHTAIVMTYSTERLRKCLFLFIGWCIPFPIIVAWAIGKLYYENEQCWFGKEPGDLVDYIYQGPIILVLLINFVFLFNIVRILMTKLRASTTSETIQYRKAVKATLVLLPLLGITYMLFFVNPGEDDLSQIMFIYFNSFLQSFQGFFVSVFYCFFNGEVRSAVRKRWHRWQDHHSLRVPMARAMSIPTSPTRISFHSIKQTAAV
T5 sequence (P24387 whole entry): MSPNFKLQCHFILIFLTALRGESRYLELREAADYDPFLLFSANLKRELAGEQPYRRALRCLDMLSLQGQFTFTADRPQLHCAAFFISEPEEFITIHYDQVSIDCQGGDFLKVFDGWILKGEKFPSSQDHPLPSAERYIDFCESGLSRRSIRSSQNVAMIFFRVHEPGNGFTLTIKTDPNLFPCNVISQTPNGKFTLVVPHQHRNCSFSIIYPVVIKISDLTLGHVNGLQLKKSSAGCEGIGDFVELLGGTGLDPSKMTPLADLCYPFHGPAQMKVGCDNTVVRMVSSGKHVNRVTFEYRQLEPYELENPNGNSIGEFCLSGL

[17] = molecular target: T6, Sentrin-specific protease 1 (Homo sapiens, UniProt Q9P0U3); assay: Dose response confirmation of small molecule inhibitors of the catalytic domain of the SUMO protease, SENP1 in a FRET assay.; format: functional; details: read-out: IC50_Mean
T6 sequence (Q9P0U3 whole entry): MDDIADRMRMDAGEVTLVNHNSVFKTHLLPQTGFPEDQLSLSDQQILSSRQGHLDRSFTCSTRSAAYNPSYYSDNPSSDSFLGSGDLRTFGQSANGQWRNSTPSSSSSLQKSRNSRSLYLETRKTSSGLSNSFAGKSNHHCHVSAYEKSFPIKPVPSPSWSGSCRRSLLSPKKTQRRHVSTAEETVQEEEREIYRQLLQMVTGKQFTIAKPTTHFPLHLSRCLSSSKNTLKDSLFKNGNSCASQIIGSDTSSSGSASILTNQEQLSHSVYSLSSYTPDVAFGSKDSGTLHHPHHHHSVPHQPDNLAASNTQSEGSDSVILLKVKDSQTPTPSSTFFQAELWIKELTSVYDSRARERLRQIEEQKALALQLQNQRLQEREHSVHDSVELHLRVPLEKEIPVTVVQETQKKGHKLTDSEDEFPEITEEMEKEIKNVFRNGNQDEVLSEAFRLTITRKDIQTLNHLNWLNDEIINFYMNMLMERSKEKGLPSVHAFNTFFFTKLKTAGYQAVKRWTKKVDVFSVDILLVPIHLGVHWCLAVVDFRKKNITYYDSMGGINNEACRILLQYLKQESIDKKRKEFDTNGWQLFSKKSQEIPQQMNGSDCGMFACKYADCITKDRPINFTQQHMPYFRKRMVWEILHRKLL

[18] = molecular target: T6, Sentrin-specific protease 1; assay: SENP1 catalytic domain blockers, concentration series – biochemical, kinetic FRET, dose response (AID 651697); format: functional; details: read-out: IC50_Mean
[19] = molecular target: T4, Mannose-6-phosphate isomerase; assay: MPI inhibition at elevated mannose 6-phosphate – biochemical, fluorescence intensity, high mannose 6-phosphate, primary screen (AID 1220)
CAAX prenyl protease 2 = CAAX prenyl protease 2 (Saccharomyces cerevisiae S288c, UniProt Q03530); format: biochemical
Sequence of CAAX prenyl protease 2 (Q03530 whole entry): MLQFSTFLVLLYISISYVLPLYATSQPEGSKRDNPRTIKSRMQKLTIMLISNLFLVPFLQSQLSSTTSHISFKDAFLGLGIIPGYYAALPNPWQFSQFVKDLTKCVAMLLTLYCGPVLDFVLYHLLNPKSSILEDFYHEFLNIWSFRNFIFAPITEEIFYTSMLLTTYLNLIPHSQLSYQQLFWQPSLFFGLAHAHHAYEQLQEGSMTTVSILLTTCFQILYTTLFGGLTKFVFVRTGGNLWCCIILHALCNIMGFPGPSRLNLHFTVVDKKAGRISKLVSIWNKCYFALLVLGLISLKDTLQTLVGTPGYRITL

Sequence of G-protein coupled receptor 55 (Q9Y2T6 whole entry): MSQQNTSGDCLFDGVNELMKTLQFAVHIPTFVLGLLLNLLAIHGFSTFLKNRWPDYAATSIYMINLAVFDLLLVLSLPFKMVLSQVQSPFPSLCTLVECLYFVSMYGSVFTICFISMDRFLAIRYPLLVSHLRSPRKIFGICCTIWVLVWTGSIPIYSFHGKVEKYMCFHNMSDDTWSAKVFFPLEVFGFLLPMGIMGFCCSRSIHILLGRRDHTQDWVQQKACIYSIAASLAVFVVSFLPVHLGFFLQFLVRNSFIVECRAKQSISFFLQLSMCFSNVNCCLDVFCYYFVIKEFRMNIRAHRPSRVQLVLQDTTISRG
Sequence of DNA dC->dU-editing enzyme APOBEC-3G (Q9HC16 whole entry): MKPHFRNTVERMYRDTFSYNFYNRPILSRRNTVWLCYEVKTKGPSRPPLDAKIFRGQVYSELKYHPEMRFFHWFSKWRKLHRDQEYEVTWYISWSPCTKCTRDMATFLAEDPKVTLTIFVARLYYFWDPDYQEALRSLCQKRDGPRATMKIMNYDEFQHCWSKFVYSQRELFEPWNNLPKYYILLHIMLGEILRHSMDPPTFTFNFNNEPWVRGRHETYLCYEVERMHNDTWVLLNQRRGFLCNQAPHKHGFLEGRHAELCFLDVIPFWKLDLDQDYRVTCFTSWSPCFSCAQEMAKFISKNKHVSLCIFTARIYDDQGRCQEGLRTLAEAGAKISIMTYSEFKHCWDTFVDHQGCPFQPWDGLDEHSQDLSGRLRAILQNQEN
Sequence of DNA dC->dU-editing enzyme APOBEC-3A (P31941 whole entry): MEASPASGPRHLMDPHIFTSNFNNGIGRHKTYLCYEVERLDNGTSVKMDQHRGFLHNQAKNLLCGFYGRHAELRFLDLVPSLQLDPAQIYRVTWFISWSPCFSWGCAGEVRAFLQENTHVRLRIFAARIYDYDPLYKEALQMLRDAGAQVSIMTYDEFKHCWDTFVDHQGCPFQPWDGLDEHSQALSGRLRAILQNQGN
Sequence of Polyadenylate-binding protein 1 (P11940 whole entry): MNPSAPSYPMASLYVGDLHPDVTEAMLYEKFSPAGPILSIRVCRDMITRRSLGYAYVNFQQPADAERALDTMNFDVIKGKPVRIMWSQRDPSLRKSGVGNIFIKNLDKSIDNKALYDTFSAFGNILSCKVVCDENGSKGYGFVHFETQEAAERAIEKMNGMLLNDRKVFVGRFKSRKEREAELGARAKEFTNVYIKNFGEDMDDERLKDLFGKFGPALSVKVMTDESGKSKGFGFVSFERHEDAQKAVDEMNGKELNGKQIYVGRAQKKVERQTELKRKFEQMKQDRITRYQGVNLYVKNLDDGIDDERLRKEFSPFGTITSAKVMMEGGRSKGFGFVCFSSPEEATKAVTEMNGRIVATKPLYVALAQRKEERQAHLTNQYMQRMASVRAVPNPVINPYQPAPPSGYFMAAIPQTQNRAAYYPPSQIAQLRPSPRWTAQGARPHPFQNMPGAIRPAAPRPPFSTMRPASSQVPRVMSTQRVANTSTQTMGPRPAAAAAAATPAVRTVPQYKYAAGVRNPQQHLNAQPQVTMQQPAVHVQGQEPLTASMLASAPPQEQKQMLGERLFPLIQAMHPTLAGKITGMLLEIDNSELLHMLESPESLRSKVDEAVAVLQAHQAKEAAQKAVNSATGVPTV
Sequence of SWI/SNF-related matrix-associated actin-dependent regulator of chromatin subfamily A member 2 (P51531 whole entry): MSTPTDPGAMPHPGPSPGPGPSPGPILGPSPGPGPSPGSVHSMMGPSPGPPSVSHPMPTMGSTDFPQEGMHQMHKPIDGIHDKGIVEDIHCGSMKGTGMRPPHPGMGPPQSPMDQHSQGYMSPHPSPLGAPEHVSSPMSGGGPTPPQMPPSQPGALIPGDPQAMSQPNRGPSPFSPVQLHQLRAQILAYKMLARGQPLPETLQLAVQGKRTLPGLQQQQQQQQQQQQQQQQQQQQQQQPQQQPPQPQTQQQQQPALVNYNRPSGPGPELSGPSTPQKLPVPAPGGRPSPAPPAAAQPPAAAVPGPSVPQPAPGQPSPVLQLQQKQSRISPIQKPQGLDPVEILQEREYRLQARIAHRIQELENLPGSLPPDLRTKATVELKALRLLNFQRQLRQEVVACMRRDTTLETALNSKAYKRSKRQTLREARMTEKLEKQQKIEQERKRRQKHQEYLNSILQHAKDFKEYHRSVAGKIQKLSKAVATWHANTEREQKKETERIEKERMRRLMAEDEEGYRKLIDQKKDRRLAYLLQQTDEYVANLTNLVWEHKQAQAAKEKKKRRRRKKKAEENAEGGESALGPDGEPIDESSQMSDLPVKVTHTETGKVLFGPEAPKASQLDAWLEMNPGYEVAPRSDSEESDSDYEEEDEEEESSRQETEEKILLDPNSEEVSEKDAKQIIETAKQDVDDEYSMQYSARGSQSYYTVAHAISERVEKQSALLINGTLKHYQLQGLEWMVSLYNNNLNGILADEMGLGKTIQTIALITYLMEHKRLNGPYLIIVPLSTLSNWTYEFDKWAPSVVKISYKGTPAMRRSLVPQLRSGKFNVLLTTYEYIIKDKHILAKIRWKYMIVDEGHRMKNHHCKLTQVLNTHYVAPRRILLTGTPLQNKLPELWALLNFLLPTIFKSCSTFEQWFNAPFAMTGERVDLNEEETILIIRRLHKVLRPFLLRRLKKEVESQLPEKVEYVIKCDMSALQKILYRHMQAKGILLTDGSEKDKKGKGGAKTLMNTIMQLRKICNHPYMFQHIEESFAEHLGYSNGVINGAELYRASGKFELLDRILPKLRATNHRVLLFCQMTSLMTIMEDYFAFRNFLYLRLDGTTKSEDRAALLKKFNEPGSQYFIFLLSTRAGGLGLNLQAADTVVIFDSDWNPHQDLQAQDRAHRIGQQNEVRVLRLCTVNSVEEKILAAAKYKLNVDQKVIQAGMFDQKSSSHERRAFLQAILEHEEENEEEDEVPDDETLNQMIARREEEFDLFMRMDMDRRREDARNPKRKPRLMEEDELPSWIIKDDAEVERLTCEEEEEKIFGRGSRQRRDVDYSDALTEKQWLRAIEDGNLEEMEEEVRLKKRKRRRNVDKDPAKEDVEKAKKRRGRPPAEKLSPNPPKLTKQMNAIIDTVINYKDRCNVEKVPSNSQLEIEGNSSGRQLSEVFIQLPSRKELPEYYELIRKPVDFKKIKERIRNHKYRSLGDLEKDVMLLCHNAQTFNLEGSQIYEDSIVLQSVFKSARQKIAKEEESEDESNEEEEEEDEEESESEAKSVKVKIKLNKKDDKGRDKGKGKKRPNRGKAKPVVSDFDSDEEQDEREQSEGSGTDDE
Sequence of Intestinal-type alkaline phosphatase (P09923 whole entry): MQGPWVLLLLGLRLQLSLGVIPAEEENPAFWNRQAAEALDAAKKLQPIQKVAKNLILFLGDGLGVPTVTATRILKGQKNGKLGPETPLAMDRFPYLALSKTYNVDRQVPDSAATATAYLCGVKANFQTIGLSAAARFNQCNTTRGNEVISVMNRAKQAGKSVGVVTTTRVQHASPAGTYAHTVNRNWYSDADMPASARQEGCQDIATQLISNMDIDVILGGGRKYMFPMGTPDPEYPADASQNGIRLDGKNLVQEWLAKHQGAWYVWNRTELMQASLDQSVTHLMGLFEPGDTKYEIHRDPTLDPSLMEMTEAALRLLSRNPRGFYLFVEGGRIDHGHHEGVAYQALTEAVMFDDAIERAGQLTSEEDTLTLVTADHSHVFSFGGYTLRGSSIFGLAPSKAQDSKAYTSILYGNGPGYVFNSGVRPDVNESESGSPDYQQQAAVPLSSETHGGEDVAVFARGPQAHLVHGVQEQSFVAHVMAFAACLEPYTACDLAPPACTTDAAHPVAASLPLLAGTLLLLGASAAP
Sequence of Induced myeloid leukemia cell differentiation protein Mcl-1 (Q07820 whole entry): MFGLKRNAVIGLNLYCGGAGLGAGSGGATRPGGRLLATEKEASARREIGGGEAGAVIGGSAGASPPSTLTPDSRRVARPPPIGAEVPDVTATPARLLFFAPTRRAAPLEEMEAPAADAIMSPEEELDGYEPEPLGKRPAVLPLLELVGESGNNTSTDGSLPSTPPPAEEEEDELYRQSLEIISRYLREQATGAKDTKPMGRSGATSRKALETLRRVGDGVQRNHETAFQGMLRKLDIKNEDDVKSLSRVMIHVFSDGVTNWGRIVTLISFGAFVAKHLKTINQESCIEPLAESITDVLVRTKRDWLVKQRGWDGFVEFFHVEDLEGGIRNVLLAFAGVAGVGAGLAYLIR
Sequence of DNA damage-inducible transcript 3 protein (P35639 whole entry): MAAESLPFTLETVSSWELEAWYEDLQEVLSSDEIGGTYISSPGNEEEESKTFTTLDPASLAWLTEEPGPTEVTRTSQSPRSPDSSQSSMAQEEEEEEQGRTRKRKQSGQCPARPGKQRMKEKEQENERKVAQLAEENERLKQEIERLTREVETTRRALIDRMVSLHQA

CC(C)Cn1c(O)c(N=NC(=O)c2cccc(S(=O)(=O)N3CCCCC3)c2)c2ccccc21
EC50 (Streptococcus): 34.3 µM (active) | EC50 (Streptokinase A): > 150 µM (not active) | AC50 [1]: 20.5 µM (active) | EC50 [2]: 5.53 µM (active) | EC50 [3]: 4.75 µM (active)

Cc1c(C(=O)c2ccc(Cl)c(Cl)c2)cnc2cc3c(cc12)OCO3
EC50 [3]: > 32 µM (inactive)

Sc1nnc(COc2ccccc2)n1/N=C/c1ccncc1
IC50 [4]: > 100 µM (inactive) | IC50 [5]: 3.12 µM (active)

CC(=O)C1=C(S(=O)(=O)c2ccc(C)cc2)CS(=O)(=O)C1
IC50 [4]: > 100 µM (inactive) | IC50 [6]: 34.3 µM (active) | EC50 [7]: 4.73 µM (active) | IC50 [5]: 8.26 µM (active) | EC50 [8]: > 91.2 µM (inactive) | IC50 [9]: 28.1 µM (active) | EC50 [10]: > 91.2 µM (inactive) | IC50 [11]: 10.9 µM (active) | Absolute IC50 (CHOP) [12]: 10 µM

Cc1cccc(NC(=O)CSc2ccc(-c3ccco3)nn2)c1
IC50 [13]: > 100 µM (inactive) | IC50 [14]: > 100 µM (inactive)

COc1cc([N+](=O)[O-])ccc1NC(=O)COC(=O)c1ccc2c(c1)NC(=O)CS2
IC50 [13]: 5.18 µM (active) | IC50 [14]: > 100 µM (inactive)

Cc1ccc2c(c1)nnc1nnc(SCC(=O)O)n12
IC50 [15]: > 100 µM (inactive) | EC50 [16]: > 53 µM (inactive) | IC50 [17]: 10.9 µM (active) | IC50 [18]: 9.05 µM (active)

OCCN(CCO)c1ccc2ccccc2c1
IC50 [6]: 56.3 µM (active) | IC50 [19]: > 50 µM (not active) | AC50 (CAAX prenyl protease 2): 63.8 µM (active) | IC50 [9]: 21.3 µM (active)
